Results: patent publication US20170196842A1, “METHODS OF TREATMENT USING A 1,2,4-OXADIAZOLE BENZOIC ACID” (PTC Therapeutics, Inc., priority 2014, published 2017)

Assays:
[1] = system: Mouse embryonic fibroblasts (MEFs) isolated from the Idua-W402X mice; assay: GAG levels in cultured mouse embryonic fibroblasts from the nmHurler mouse model (Blyscan Sulfated GAG Assay); type: cell-based; conditions: 24 hours
Protocol: nmMPS I is caused by the lack of the lysosomal enzyme IDUA and results in the accumulation of GAGs in tissues. Therefore, GAG levels can be monitored to assess the efficacy of treatment for this disease. In the nmHurler mouse model of nmMPS I, the Idua-W402X Hurler mouse IDUA gene (TGG→TAG) harbors a W392X mutation in exon 9, corresponding to the W402X mutation found in approximately 30 to 50% of nmMPS I patients. Mouse embryonic fibroblasts (MEFs) isolated from the Idua-W402X mice were treated with Compound 1 at concentrations of 0, 1, 2.5, 5, 10, 20, and 40 μg/mL for 24 hours in 0.2% DMSO. After 24 hours, cells were lysed and the levels of GAGs were quantified.
The effect of Compound 1 on iduronidase activity as a result of readthrough of the premature stop codon present in the Idua gene was determined in an in vitro GAG accumulation assay. This assay utilized primary fibroblasts isolated from 13 day-old +/+ and −/− Idua-W392X mouse embryos. Mouse embryonic fibroblasts (MEFs) were isolated from 13 day-old wild type and homozygous Idua-W392X mouse embryo littermates. The cells were grown in Dulbecco's Modified Eagle Media (DMEM) containing 10% bovine calf serum (BCS)+1% non-essential amino acids+1% penicillin/streptomycin at 37° C. and 5% CO2. The MEFs were isolated and grown on collagen-coated plates until ˜50% confluent. MEFs from Idua-W392X mice were treated with increasing concentrations of Compound 1 dissolved in DMSO to a final concentration of 0.2%. Cells were incubated with Compound 1 for 24 hours. Controls included untreated wild type and untreated Idua-W392X MEFs. After 24 hours, cells were visually inspected for signs of cytotoxicity and cell stress and then lysed using M-Per Protein Reagent (Pierce) containing protease inhibitors (Complete-mini; Roche) per the manufacturer's instructions. The supernatant was used to determine glycosaminoglycan (GAG) levels, as described below.
GAG levels were determined using the Blyscan Sulfated GAG Assay (Biocolor Ltd, UK). Briefly, 50 μl of each lysate was added to 500 μl of the Blyscan Dye Reagent and mixed by vortexing. The mixture was incubated at room temperature for 30 minutes, vortexing every 5 minutes. The dye-bound GAGs were isolated from the solution by centrifuging for 10 minutes at 10,000 g at room temperature. 500 μl of the Blyscan Dye Dissociation Reagent was added to the […] from each sample. […] The entire volume of each sample was then placed into a cuvette and the absorbance was measured at a wavelength of 656 nm. The total amount of sulfated GAGs precipitated from each sample was determined from a standard curve using chondroitin 4-sulfate. The total protein concentration in each lysate was determined using the Bio-Rad protein assay with a standard curve generated using bovine serum albumin.

Idua-W402X mice = assay: Tissue GAG levels in the nonsense-mutation Hurler mouse model, Compound 1 given in chow; type: in vivo
Protocol: Compound 1 was administered to Idua-W402X mice by mixing Compound 1 into solid mouse chow at concentrations of 0.1%. 0.3% or 1.0% (w/w) for 2 weeks, after which time GAG levels in the brain, spleen, heart, liver, lung, and kidney tissues were quantified.
The effect of Compound 1 on iduronidase activity as a result of readthrough of the premature stop codon present in the Idua gene (Idua-W392X) was determined in a nonsense-mutation containing mouse model of Hurler syndrome, referred to as the Idua-W392X Hurler mouse. The study initiated when mice were 3-4 weeks old.
Homozygous Idua-W392X mice were offered food prepared with or without Compound 1 for 14 days. Wild type animals received chow without Compound 1 for 14 days. Assay results were obtained from tissues isolated from wild type (+/+) and homozygous Idua-W392X (−/−) mice after 14 days of treatment. Briefly, Compound 1 was dissolved in water, mixed into pulverized chow, shaped into pellets and dried.
Following the 14-day treatment period, mice were anesthetized using isoflurane and transcardially perfused with 20 mL saline prior to tissue collection. At the time of sacrifice, brain, liver, heart, lung, spleen and kidney were collected and frozen at −80° C. until used for determination of GAG levels.
GAG levels were determined using the Blyscan Sulfated GAG Assay (Biocolor Ltd, UK). Briefly, 50 μL of each lysate was added to 500 μL of the Blyscan Dye Reagent and mixed by vortexing. The mixture was incubated at room temperature for 30 minutes, vortexing every 5 minutes. The dye-bound GAGs were isolated from the solution by centrifuging for 10 minutes at 10,000 g at room temperature. A total of 500 μL of the Blyscan Dye Dissociation Reagent was added to the […] from each sample. The samples were vortexed and incubated for 10 minute at room temperature. The entire volume of each sample was then placed into a cuvette and the absorbance was measured at a wavelength of 656 nm. The total amount of sulfated GAGs precipitated from each sample was determined from a standard curve using chondroitin 4-sulfate. The total protein concentration in each lysate was determined using the Bio-Rad protein assay with a standard curve generated using bovine serum albumin.

[2] = Weight gain and food intake of mice given Compound 1 in chow; type: in vivo, C57BL/6J mice; conditions: 1.0% (w/w) in chow
From the text: Mice receiving food containing 1.0% (w/w) Compound 1 are 45% less food than mice receiving the control chow. However, a reduction in weight gain would not be expected to elicit a reduction in tissue GAG levels in the pharmacology studies.

[3] = Idua-W402X (W392X) mice, 0.1%, 0.3%, 1.0% (w/w) chow, 14 days
[4] = Idua-W402X mice, 0.1% (w/w) in chow, 2 weeks
[5] = Idua-W402X mice, 0.3% (w/w) in chow, 2 weeks
[6] = Idua-W402X mice, 1.0% (w/w) in chow, 2 weeks

O=C(O)c1cccc(-c2noc(-c3ccccc3F)n2)c1 [Compound 1, 3-[5-(2-fluoro-phenyl)-[1,2,4]oxadiazol-3-yl]-benzoic acid]
Dose-response relationship for GAG reduction ([1]; Idua-W392X MEFs): U shaped dose-response relationship
Nonsense suppression activity as determined by GAG levels ([1]; Idua-W392X MEFs): concentration dependent nonsense suppression activity
Concentration giving the greatest reduction of GAG levels ([1]; Idua-W402X (W392X) MEFs, 1-40 μg/mL tested): 10 µg/mL
Concentrations with decreased reduction of GAG levels ([1]; Idua-W402X MEFs): above 20 μg/mL
Nonsense suppression activity as determined by decreased GAG levels in multiple tissues (Idua-W402X mice; Idua-W392X mice, chow, 14 days): concentration-dependent nonsense suppression activity
Compound 1 concentration in chow giving maximal reduction of GAG levels in brain, spleen, heart and lung (Idua-W402X mice; [3]): 0.1%
Compound 1 concentration in chow giving maximal reduction of liver GAG levels (Idua-W402X mice; [3]): 0.3%
Effect on GAG levels in the kidney (Idua-W402X mice; Idua-W402X (W392X) mice, any dose (0.1-1.0% chow)): No statistically significant effect
Reduction in Excess GAG Levels, Brain (Idua-W402X mice; [4]): 70%
Reduction in Excess GAG Levels, Heart (Idua-W402X mice; [4]): 36%
Reduction in Excess GAG Levels, Kidney (Idua-W402X mice; [4]): 0%
Reduction in Excess GAG Levels, Liver (Idua-W402X mice; [4]): 0%
Reduction in Excess GAG Levels, Lung (Idua-W402X mice; [4]): 19%
Reduction in Excess GAG Levels, Spleen (Idua-W402X mice; [4]): 78%
GAG levels achieved in the brain and spleen (Idua-W402X mice; Idua-W402X mice, 0.1% in chow, 2 weeks): near normal GAG levels
Reduction in Excess GAG Levels, Brain (Idua-W402X mice; [5]): 37%
Reduction in Excess GAG Levels, Heart (Idua-W402X mice; [5]): 0%
Reduction in Excess GAG Levels, Kidney (Idua-W402X mice; [5]): 0%
Reduction in Excess GAG Levels, Liver (Idua-W402X mice; [5]): 53%
Reduction in Excess GAG Levels, Lung (Idua-W402X mice; [5]): 11%
Reduction in Excess GAG Levels, Spleen (Idua-W402X mice; [5]): 57%
Reduction in Excess GAG Levels, Brain (Idua-W402X mice; [6]): 28%
Reduction in Excess GAG Levels, Heart (Idua-W402X mice; [6]): 0%
Reduction in Excess GAG Levels, Kidney (Idua-W402X mice; [6]): 0%
Reduction in Excess GAG Levels, Liver (Idua-W402X mice; [6]): 17%
Reduction in Excess GAG Levels, Lung (Idua-W402X mice; [6]): 14%
Reduction in Excess GAG Levels, Spleen (Idua-W402X mice; [6]): 11%
Reduction of food intake versus control chow [2]: 45%
Weight gain versus 0.1%, 0.3% doses or vehicle ([2]; satellite PK study and Idua-W402X pharmacology studies): did not gain as much weight
